This note sets out measurements from patent US4870074A, “Substituted benzamide derivatives, for enhancing gastrointestinal motility” (priority 1986, dated 1989).

SMILES strings stand for the structures.

One series concerns gastric emptying. Nature of the series: Test 1: gastric emptying enhancing activity (phenol red test meal). It counts as in vivo, Male Wistar rats. The conditions noted are these: po, 0.25 h, 60 min before test meal, rat, read-out: Gastric emptying enhancing activity, Increase (emptying rate vs control); for change in vivo at 2 mg/kg: 2.0 mg/kg p.o. The method, then: The test was carried out according to the method of Scarpignato et al. [cf. Arch. int. Pharmacodyn., 246, 286-294 (1980)].
Male Wistar rats, weighing 130-150 g, were fasted for 18 hours before experimentation, and 1.5 ml of a test meal (phenol red 0.05% in a 1.5% aqueous methylcellulose solution) was given by gastric tube. Fifteen minutes after administration of the meal the stomach was removed and the amount of phenol red remaining in the stomach was measured.
The test compounds, dissolved or suspended in a 0.5% tragacanth solution, were orally administered 60 minutes before administration of the test meal. The rate of gastric emptying was calculated according to the amount of phenol red remaining in the stomach, and the activity of the test compounds was expressed in terms of increase in the emptying rate from the control. The number of animals used was 5 for the control and each dose of metoclopramide hydrochloride monohydrate and 4 for each dose of the other test compounds.

A further series has as its system central nervous system. The series is described as follows: Test 3: effect on the central nervous system (CNS effect), Irwin observation. The conditions noted are these: 100 mg/kg, p.o., mouse, 2 hours observation.

Description for central nervous system: Male ddY mice, weighing 18-25 g, were used in groups of 3 animals each. […] Psychopharmacologia, 13, 222-227 (1968)], comprehensive observation of behavioral and physiologic states were carried out for 2 hours after the oral treatment with 100 mg/kg of the test compound, dissolved or suspended in a 0.5% tragacanth solution. Liability of the test compounds to the central nervous system effect was expressed with the following marks, according to the total sum of potencies for the individually analyzed effects, such as catalepsy, ptosis, hypolocomotin, etc.

As for `CCCCCCCOc1cc(N)c(Cl)cc1C(=O)NCC1CN(Cc2ccccc2)CCO1` (stereo not shown) [Example 97], the change in vivo at 2 mg/kg in the series on gastric emptying was 43.8%. Besides, in the series with central nervous system, the CNS effect result is “-”.
Take `Nc1cc(OC2CCCC2)c(C(=O)NCC2CN(Cc3ccccc3)CCO2)cc1Cl` (stereo not shown) [Example 101]: in the series on gastric emptying, the change in vivo at 2 mg/kg amounted to 46.4%. Further, the CNS effect entry in the series on central nervous system is listed as “-”.
Turning to `CC(=O)COc1cc(N)c(Cl)cc1C(=O)NCC1CN(Cc2ccccc2)CCO1` (stereo not shown) [Example 104], in the series on gastric emptying, the change in vivo at 2 mg/kg worked out at 43.8%. The CNS effect result in the series with central nervous system is reported as “-”.
Turning to `CC(O)COc1cc(N)c(Cl)cc1C(=O)NCC1CN(Cc2ccccc2)CCO1` (stereo not shown) [Example 105], the change in vivo at 2 mg/kg in the series on gastric emptying stood at 52%. Moreover, the CNS effect entry in the series on central nervous system is “-”.
Take `CC(C)=CCOc1cc(N)c(Cl)cc1C(=O)NCC1CN(Cc2ccccc2)CCO1` (stereo not shown) [Example 116, 4-amino-N-[(4-benzyl-2-morpholinyl)methyl]-5-chloro-2-(3-methyl-2-butenyloxy)benzamide]: the change in vivo at 0.5 mg/kg with gastric emptying (0.5 mg/kg p.o.) turned out to be 41.4%. Besides, in the series with gastric emptying, the change in vivo at 2 mg/kg is 52.4%. In addition, the CNS effect entry with central nervous system is reported as “-”.
For the compound `C=CCCOc1cc(N)c(Cl)cc1C(=O)NCC1CN(Cc2ccccc2)CCO1` (stereo not shown) [Example 119], the change in vivo at 2 mg/kg in the series on gastric emptying worked out at 48.4%. In addition, the CNS effect entry in the series with central nervous system is on record as “-”.
